Patent US20110034457A1, “Pyridothiophene Compounds” (VERNALIS (CAMBRIDGE) LIMITED., priority 2003, published 2011)
Where two headings read alike, the source gives them in different places.

Molecular target: T1, human full-length HSP90 (Homo sapiens, UniProt P08238)
T1 construct: E. coli expressed human full-length HSP90 protein, purified >95%; made in house; host or cells: E. coli
Test: Fluorescence polarization assay (competitive displacement of probe RBT0045864-FAM from HSP90)
Type: binding
Description: Fluorescence polarization {also known as fluorescence anisotropy} measures the rotation of a fluorescing species in solution, where the larger molecule the more polarized the fluorescence emission. When the fluorophore is excited with polarized light, the emitted light is also polarized. The molecular size is proportional to the polarization of the fluorescence emission.
The fluoroscein-labelled probe—RBT0045864-FAM—
binds to HSP90 {full-length human, full-length yeast or N-terminal domain HSP90} and the anisotropy {rotation of the probe:protein complex} is measured.
Test compound is added to the assay plate, left to equilibrate and the anisotropy measured again. Any change in anisotropy is due to competitive binding of compound to HSP90, thereby releasing probe.
Stored at room temperature. • 3) BSA (bovine serum albumen) 10 mg/ml (New England Biolabs # B9001S) • 4) 20 mM probe in 100% DMSO stock concentration. Stored in the dark at RT. Working concentration is 200 nM diluted in AR water and stored at 4° C.
• 1) Add 100 μl 1× buffer to wells 11A and 12A (=FP BLNK) • 2) Prepare assay mix—all reagents are kept on ice with a lid on the bucket as the probe is light-sensitive.
• 3) Aliquot 100 μl assay mix to all other wells • 4) Seal plate and leave in dark at room temp for 20 minutes to equilibrate
This gives 2.5 mM {50×} stock cpd—assuming cpds 20 mM. • 4) Repeat for wells A2 to A10. Control in columns 11 and 12. • 5) Transfer 5 μl from row A to row B—not column 12. Mix well. • 6) Transfer 5 μl from row B to row C. […] Add 2 μl of 100 mM standard cpd to wells B12-H12 {is positive control} • 13) The Z′ factor is calculated from zero controls and positive wells.

[1] = fluorescence polarisation, E. coli expressed human full-length HSP90 200 nM, probe 80 nM, read-out: Hsp90 FP IC50

T1 sequence (P08238 whole entry): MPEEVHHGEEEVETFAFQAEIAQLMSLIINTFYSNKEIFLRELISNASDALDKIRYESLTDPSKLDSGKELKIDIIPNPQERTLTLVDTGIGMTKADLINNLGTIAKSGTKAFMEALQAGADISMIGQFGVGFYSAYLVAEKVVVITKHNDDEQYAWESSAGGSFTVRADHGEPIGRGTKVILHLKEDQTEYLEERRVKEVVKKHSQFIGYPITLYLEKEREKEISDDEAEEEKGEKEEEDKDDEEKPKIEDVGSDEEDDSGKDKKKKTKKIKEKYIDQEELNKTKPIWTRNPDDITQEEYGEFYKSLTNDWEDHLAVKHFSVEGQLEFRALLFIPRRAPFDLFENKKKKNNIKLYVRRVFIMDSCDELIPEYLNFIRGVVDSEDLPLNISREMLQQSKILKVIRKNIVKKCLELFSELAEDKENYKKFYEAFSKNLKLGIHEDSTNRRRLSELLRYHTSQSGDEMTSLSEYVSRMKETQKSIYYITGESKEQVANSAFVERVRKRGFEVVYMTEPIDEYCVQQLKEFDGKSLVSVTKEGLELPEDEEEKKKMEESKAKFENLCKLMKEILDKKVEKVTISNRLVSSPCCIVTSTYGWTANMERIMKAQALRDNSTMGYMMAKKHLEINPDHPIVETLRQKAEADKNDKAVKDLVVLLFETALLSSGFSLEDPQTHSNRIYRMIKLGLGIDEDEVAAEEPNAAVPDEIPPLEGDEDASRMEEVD

Row | Structure (SMILES) | IC50 [1] [µM] | IC50 [µM]
1 | CCNC(=O)c1sc2nc(N)c(C#N)c(-c3ccccc3)c2c1N [Example 1, 3,6-Diamino-5-cyano-4-phenyl-thieno[2,3-b]pyridine-2-carboxylic acid ethylamide] | < 10 | 
2 | Cc1ccccc1NC(=O)c1sc2nc(N)c(C#N)c(-c3ccc(C(C)C)cc3)c2c1N [Example 2] | > 10 | 
3 | COc1cccc(NC(=O)c2sc3nc(N)c(C#N)c(-c4ccc(C(C)C)cc4)c3c2N)c1 [Example 3] | > 10 | 
4 | N#Cc1c(N)nc2sc(C(N)=O)c(N)c2c1-c1ccc(Br)cc1 [Example 4] | > 10 | 
5 | CC(C)c1ccc(-c2c(C#N)c(N)nc3sc(C(=O)Nc4nccs4)c(N)c23)cc1 [Example 5] | > 10 | 
6 | CC(C)c1ccc(-c2c(C#N)c(N)nc3sc(C(N)=O)c(N)c23)cc1 [Example 6] | < 10 | 
7 | N#Cc1c(N)nc2sc(C(N)=O)c(N)c2c1-c1ccc(Cl)cc1 [Example 7] | < 10 | 
8 | CCOc1ccc(-c2c(C#N)c(N)nc3sc(C(N)=O)c(N)c23)cc1 [Example 8] |  | < 10
9 | N#Cc1c(N)nc2sc(C(=O)Nc3ccccc3)c(N)c2c1-c1ccc(Br)cc1 [Example 9] | > 10 | 
10 | COc1ccc(-c2c(C#N)c(N)nc3sc(C(N)=O)c(N)c23)cc1OC [Example 10] | > 10 | 
11 | CC(C)NC(=O)c1sc2nc(N)c(C#N)c(-c3ccccc3)c2c1N [Example 11] | > 10 | 
12 | N#Cc1c(N)nc2sc(C(=O)NCc3ccccc3)c(N)c2c1-c1ccccc1 [Example 12] | > 10 | 
13 | CCN(CC)C(=O)c1sc2nc(N)c(C#N)c(-c3ccccc3)c2c1N [Example 13] | > 10 | 
14 | CNC(=O)c1sc2nc(N)c(C#N)c(-c3ccccc3)c2c1N [Example 14] | < 10 | 
15 | COC(=O)CNC(=O)c1sc2nc(N)c(C#N)c(-c3ccccc3)c2c1N [Example 15] | < 10 | 
16 | CN1CCN(C(=O)c2sc3nc(N)c(C#N)c(-c4ccccc4)c3c2N)CC1 [Example 16] | > 10 | 
17 | CN(C)CCCNC(=O)c1sc2nc(N)c(C#N)c(-c3ccccc3)c2c1N [Example 17] | > 10 | 
18 | CN1CCN(CCCNC(=O)c2sc3nc(N)c(C#N)c(-c4ccccc4)c3c2N)CC1 [Example 18] | > 10 | 
19 | N#Cc1c(N)nc2sc(C(=O)NCCCN3CCOCC3)c(N)c2c1-c1ccccc1 [Example 19] | > 10 | 
20 | N#Cc1c(N)nc2sc(C(=O)N3CCOCC3)c(N)c2c1-c1ccccc1 [Example 20] | > 10 | 
21 | N#Cc1c(N)nc2sc(C(=O)NCCN3CCOCC3)c(N)c2c1-c1ccccc1 [Example 21] | > 10 | 
22 | N#Cc1c(N)nc2sc(C(=O)NCC(N)=O)c(N)c2c1-c1ccccc1 [Example 22] | < 10 | 
23 | CN(C)CCNC(=O)c1sc2nc(N)c(C#N)c(-c3ccccc3)c2c1N [Example 23] | > 10 | 
24 | N#Cc1c(N)nc2sc(C(=O)NCCO)c(N)c2c1-c1ccccc1 [Example 24] | > 10 | 
25 | N#Cc1c(N)nc2sc(C(N)=O)c(N)c2c1-c1ccccc1 [Example 25] | > 10 | 
26 | N#Cc1c(N)nc2sc(C(=O)NCCN)c(N)c2c1-c1ccccc1 [Example 26] | > 10 | 
27 | COC(=O)c1sc2nc(N)c(C#N)c(-c3ccc(OC(C)C)cc3)c2c1N [Example 27] | > 10 | 
